We go through 18 molecules from patent US6664224B2, “Quaternary ammonium salt and process for the preparation thereof” (priority 2000, dated 2003).

The MIC is the least concentration at which growth counts as inhibited.

Data set [1] deals with Escherichia coli K12 W 3110. In words: Minimum development inhibiting concentration (MIC) against bacteria, broth dilution method. The data set is classed as cell-based. As to conditions: for MIC Escherichia coli K12 W 3110: 37° C. 24 hours; for MIC: Escherichia coli, K12W3110, 37° C. 24 hours. As to the method: A bacteria solution in stationary state which had been adjusted with a nutrient broth according to an ordinary broth dilution method such that the concentration of bacterial suspension reached 10^6 cell/ml was added to chemical solutions having concentrations which vary stepwise where it was then allowed to stand at a temperature of 37° C. for 24 hours for culture. The bacteria solution was then examined to see if the proliferation of bacteria occurred. Thus, MIC was determined.
Escherichia coli K12 W 3110 was used as a sample bacterium. Compounds obtained in Examples 1 to 9 and benzalkonium chloride prepared in Comparative Example 1 were used as test samples.
The compounds obtained in Examples 10 to 19 and benzalkonium chloride were determined for MIC value against Escherichia coli K12 W 3110 in the same manner as in Test Example 3.
On the technique in general: In broth dilution the organism is exposed to a series of concentrations in liquid medium.

Another data set has as its system Erythrocyte. The data set is described as follows: Minimum hemolytic activity concentration against erythrocyte. The following applies: human erythrocyte, 37° C. 1 hour, O.D.540, 50% hemolysis. The data set is classed as cell-based. As to the method:
Human blood was collected. The sample blood was then mixed with the equal amount of alsebar solution (glucose: 2.05 g; NaCl: 0.42 g; sodium citrate: 0.8 g; citric acid: 0.55 g; pH: 6.1). The mixture was then stored at a temperature of 4° C. Shortly before used for experiment, the alsebar stored blood was subjected to centrifugal separation. Thus, the supernatant liquid and the leukocyte layer on the erythrocyte were removed. To the erythrocyte was then added PBS in an amount of […] that of the erythrocyte to obtain a 50% erythrocyte. 10 μl of the 50% erythrocyte was then mixed with 990 μl of each of chemicals which had been diluted with PBS in amounts varying stepwise. The erythrocyte was acted upon by the chemical at a temperature of 37° C. for 1 hour. The mixture was then subjected to centrifugal separation. The supernatant liquid was collected for the measurement of the optical density at 540 nm (O.D.540). Separately, the foregoing procedure was followed except that no chemicals were used to prepare a 0% hemolytic control. The foregoing procedure was followed except that Milliq water was used instead of PBS to prepare a 100% hemolytic control. For the minimum hemolytic activity concentration of chemical, the minimum concentration at which the hemolytic concentration is […] was determined.

In data set [2] the test system is Escherichia coli K12 W 3110. In words: Minimum bactericidal concentration (MBC) against bacteria. Format: cell-based. As to conditions: culture 37° C. 24 hours. As to the method:
(§1) A bacteria solution in the initial stage of logarithmic productive phase which had been adjusted with a nutrient broth according to an ordinary sterilized water dilution method such that the concentration of bacterial suspension reached 10^6 cell/ml was brought into contact with chemical solutions having concentrations which vary stepwise at a temperature of 30° C. for 30 minutes, and then transplanted to a nutrient broth where it was then allowed to stand at a temperature of 37° C. for 24 hours for culture. The nutrient broth was then examined to see if the proliferation of bacteria occurred. Thus, MBC was determined.
(§2) Five kinds of gram-negative bacteria and four kinds of gram-positive bacteria were used as sample bacteria.
(§3) BAMP-6 (Example 12), BAMD-6,8 (Example 13), BAMT-6 (Example 17) and benzalkonium chloride (Comparative Example 1) were determined for MBC value against 5 kinds of gram-negative bacteria and 4 kinds of gram-positive bacteria in the same manner as in Test Example 1.

Data set [3] deals with Escherichia coli K12 OUT 8401. Described as above. Format: cell-based. The following applies: culture 37° C. 24 hours. As to the method:
as §1, §2, §3

In another data set the test system is Bacillus cereus IFO 3001. Described as above. The data set is classed as cell-based. As to conditions: culture 37° C. 24 hours. The protocol: as §1, §2, §3
Data set [4] deals with Bacillus subtilis IFO 3134. The description is as above. Format: cell-based. As to conditions: culture 37° C. 24 hours. As to the method: as §1, §2, §3
In data set [5] the test system is Staphylococcus aureus IFO 12732. The data set is described as above. As to conditions: culture 37° C. 24 hours. Format: cell-based. As to the method:
as §1, §2, §3

For data set [6], the system named is Klebsiella pneumoniae ATCC 13883. The description is as above. The data set is classed as cell-based. As to conditions: culture 37° C. 24 hours. As to the method:
as §1, §2, §3

A further data set concerns Proteus rettgeri NIT 96. The data set is described as above. The data set is classed as cell-based. The following applies: culture 37° C. 24 hours. As to the method:
as §1, §2, §3

Data set [7] relates to Pseudomonas aeruginosa ATCC 27583. Described as above. Format: cell-based. As to conditions: culture 37° C. 24 hours. The protocol:
as §1, §2, §3

The test system of data set [8] is Bacillus substilis ATCC 6633. The description is as above. As to conditions: culture 37° C. 24 hours. Format: cell-based, Bacillus subtilis. The protocol:
as §1, §2, §3

Read-outs that look alike come from different tables or passages of the source. Bounds are passed on as bounds.

For the molecule “1,4-bis(N,N-butyl-N-methylammoniomethyl)-2,3,5,6-tetramethylphenylene dichloride [BAMD-4]”, the “MIC Escherichia coli K12 W 3110” value in data set [1] amounted to 16 ppm.
As to “1,4-bis(N,N-dioctyl-N-methylammoniomethyl)-2,3,5,6-tetramethylphenylene dichloride [BAMD-8]”, the “MIC Escherichia coli K12 W 3110” value in data set [1] is 1 ppm.
The same measure, in the same setting: then “1,4-bis(N,N-dioctyl-N-methylammoniomethyl)phenylene di-p-toluenesulfonate [Example 4BAMP-8S]”, with 1 ppm.
In the case of “1,4-bis(N,N-dipentyl-N-methylammoniomethyl)phenylene di-p-tolyenesulfonate [Example 4BAMP-5S]”, in data set [1], the “MIC Escherichia coli K12 W 3110” value stood at 16 ppm. The “Minimum hemolytic activity concentration Erythrocyte” value in the data set with Erythrocyte is 400 ppm.
For the molecule “1,4-bis(N-octyl-N-hexyl-N-methylammoniomethyl)-2,3,5,6-tetramethylphenylene dichloride [BAMD-6, 8]”, in data set [1], the “MIC Escherichia coli K12 W 3110” value worked out at 1 ppm. The MBC (in [2] (contact 30° C. 30 minutes); in data set [3] (contact 30° C. 30 minutes); against Bacillus cereus IFO 3001 (contact 30° C. 30 minutes); in data set [4] (contact 30° C. 30 minutes); in [5] (contact 30° C. 30 minutes); in [6] (contact 30° C. 30 minutes)) was <2 ppm throughout. Besides, the MBC (in the data set with Proteus rettgeri NIT 96 (contact 30° C. 30 minutes); in [7] (contact 30° C. 30 minutes); in data set [8] (contact 30° C. 30 minutes)) was <2 ppm throughout.
Regarding `CCCCCC[N+](C)(CCCC)Cc1ccc(C[N+](C)(CCCC)CCCCCC)cc1.[I-].[I-]` (stereo not shown) [4BAMP-4, 6I, 1,4-bis(N-butyl-N-hexyl-N-methylammoniomethyl)phenylene diiodide], in data set [1], the “MIC Escherichia coli K12 W 3110” value came to 16 ppm.
Same read-out and setting: the value for `CCCCCCCC[N+](C)(CCCC)Cc1ccc(C[N+](C)(CCCC)CCCCCCCC)cc1.[I-].[I-]` (stereo not shown) [4BAMP-4, 8I, 1,4-bis(N-butyl-N-octyl-N-methylammoniomethyl)phenylene diiodide] was 2 ppm.
For `CCCCC[N+](C)(CCCCC)Cc1c(C)c(C)c(C[N+](C)(CCCCC)CCCCC)c(C)c1C.[Cl-].[Cl-]` [BAMD-5, 1,4-bis(N,N-dipentyl-N-methylammoniomethyl)-2,3,5,6-tetramethylphenylene dichloride], the “MIC Escherichia coli K12 W 3110” value in data set [1] was 2 ppm. Further, the “Minimum hemolytic activity concentration Erythrocyte” value in the data set with Erythrocyte is 800 ppm.
In data set [1], `CCCC[N+](C)(CCCC)Cc1c(C)cc(C)c(C[N+](C)(CCCC)CCCC)c1C.[Cl-].[Cl-]` [BAMT-4, 2,4-bis(N,N-dibutyl-N-methylammoniomethyl)-1,3,5-trimethylbenzene dichloride] returned a minimum inhibitory concentration (MIC) of 8 µg/mL.
The molecule `CCCCC[N+](C)(CCCCC)Cc1c(C)cc(C)c(C[N+](C)(CCCCC)CCCCC)c1C.[Cl-].[Cl-]` [BAMT-5, 2,4-bis(N,N-dipentyl-N-methylammoniomethyl)-1,3,5-trimethylbenzene dichloride] yielded an MIC in data set [1] of 2 µg/mL. Besides, in the data set on Erythrocyte, the “Minimum hemolytic activity concentration Erythrocyte” value is on record as 800 ppm.
Turning to `CCCCCC[N+](C)(CCCCCC)Cc1c(C)cc(C)c(C[N+](C)(CCCCCC)CCCCCC)c1C.[Cl-].[Cl-]` [BAMT-6, 2,4-bis(N,N-dihexyl-N-methylammoniomethyl)-1,3,5-trimethylbenzene dichloride], 1 µg/mL was the least that counted as inhibitory in data set [1] (MIC). Further, the “Minimum hemolytic activity concentration Erythrocyte” value with Erythrocyte is on record as 400 ppm. Besides, the MBC was 4 µg/mL in [2] (K12W3110, contact 30° C. 30 minutes, read-out: MBC); < 2 µg/mL in [3] (K12OUT8401, contact 30° C. 30 minutes, read-out: MBC); < 2 µg/mL with Bacillus cereus IFO 3001 (IFO3001, contact 30° C. 30 minutes, read-out: MBC); < 2 µg/mL in data set [4] (IFO3134, contact 30° C. 30 minutes, read-out: MBC); < 2 µg/mL in data set [5] (IFO12732, contact 30° C. 30 minutes, read-out: MBC); < 2 µg/mL in data set [6] (ATCC13883, contact 30° C. 30 minutes, read-out: MBC). The MBC in the data set on Proteus rettgeri NIT 96 (Providencia rettgeri, NIT96, contact 30° C. 30 minutes, read-out: MBC) was < 2 µg/mL; in data set [7] (ATCC27583, contact 30° C. 30 minutes, read-out: MBC), 4 µg/mL; in data set [8] (ATCC6633, contact 30° C. 30 minutes, read-out: MBC) it was < 2 µg/mL.
Turning to `CCCCCCCC[N+](C)(CCCCCC)Cc1c(C)cc(C)c(C[N+](C)(CCCCCC)CCCCCCCC)c1C.[Cl-].[Cl-]` (stereo not shown) [BAMT-6, 8, 2,4-bis(N-octyl-N-hexyl-N-methylammoniomethyl)-1,3,5-trimethylbenzene dichloride], the MIC in data set [1] came out at 1 µg/mL.
Molecule `CCCCCCCC[N+](C)(CCCCCCCC)Cc1c(C)cc(C)c(C[N+](C)(CCCCCCCC)CCCCCCCC)c1C.[Cl-].[Cl-]` [BAMT-8, 2,4-bis(N,N-dioctyl-N-methylammoniomethyl)-1,3,5-trimethylbenzene dichloride] displayed an MIC in data set [1] of 1 µg/mL.
For `CCCCCC[N+](C)(CCCCCC)Cc1ccccc1C[N+](C)(CCCCCC)CCCCCC.[Cl-].[Cl-]` [Example 2BAMP-6C, 1,2-bis(N,N-dihexyl-N-methylammoniomethyl)phenylene dichloride], the “MIC Escherichia coli K12 W 3110” value in [1] worked out at 1 ppm.
Consider `CCCCCC[N+](C)(CCCCCC)Cc1cccc(C[N+](C)(CCCCCC)CCCCCC)c1.[Cl-].[Cl-]` [Example 3BAMP-6C, 1,3-bis(N,N-dihexyl-N-methylammoniomethyl)phenylene dichloride], for which the “MIC Escherichia coli K12 W 3110” value in data set [1] is 1 ppm.
For the molecule `CCCCCCCCCCCC[N+](C)(C)Cc1ccc(C[N+](C)(C)CCCCCCCCCCCC)cc1.[Cl-].[Cl-]` [Example 4BADMP-12C, 1,4-bis(N-dodecyl-N,N-dimethylammoniomethyl)phenylene dichloride, reference compound], the “Minimum hemolytic activity concentration Erythrocyte” value with Erythrocyte was 12.5 ppm.
Regarding `CCCCCCCC[N+](C)(CCCCCCCC)Cc1ccc(C[N+](C)(CCCCCCCC)CCCCCCCC)cc1.[Cl-].[Cl-]` [Example 4BAMP-8C, 1,4-bis(N,N-dioctyl-N-methylammoniomethyl)phenylene dichloride], the “MIC Escherichia coli K12 W 3110” value in data set [1] is 1 ppm.
In the case of `CCCCCCCC[n+]1ccc(SCc2ccc(CSc3cc[n+](CCCCCCCC)cc3)cc2)cc1.[I-].[I-]` [Example I-8, 4,4′-(p-xylyldithio)-bis(1-octylpyridinium iodide), reference compound], the “Minimum hemolytic activity concentration Erythrocyte” value in the data set on Erythrocyte came to 50 ppm.
